# Test results: patent publication US20200002327A1, “THERAPEUTIC AGENT FOR ANXIETY DISORDERS” (KYOWA HAKKO KIRIN CO., LTD., priority 2009, published 2020)
# Legend:
# rats [1] = assay: Yohimbine-induced anxiety-like behavior in rat social interaction test; assay type: in vivo
# Protocol: The male SD rats (weighing 201.8 to 285.6 g; Charles River Japan Inc.)were used in this study. On the day of behavioral evaluation, the animals were acclimatized to the test environment from 4 hours before the start of the experiment. Sixty minutes after oral administration of a vehicle (0.5 w/v % MC solution) or a test compound (prepared in suspension in 0.5 w/v % MC solution to obtain a dosing concentration of 0.5 mL per 100 g of rat body weight), two rats were allowed to meet each other in an acrylic box (50×50×50 cm). The total time of social interaction behaviors (sniffing, following, grooming and the like) during monitoring for 10 minutes immediately after meeting (between-rats interaction time) were measured with a stopwatch. Using the method of Test Example 4, the effect of a compound on the anxiety induced with administration of an anxiogenic substance was examined. Yohimbine (adrenalin α2 receptor antagonist) is known as one of the anxiogenic substance. It is thought that locus coeruleus hyperactivity that accompanies α2 receptor antagonizing action is contributory to the anxiety-inducing action of Yohimbine. Anxiety symptoms that develop with administration of Yohimbine to healthy persons were reported to be similar to panic disorders, in the pathophysiology of which abnormal locus coeruleus activity is considered to be largely involved. […]
# rats [2] = assay: mCPP-induced anxiety-like behavior in rat social interaction test; assay type: in vivo
# Protocol: (§1) The male SD rats (weighing 201.8 to 285.6 g; Charles River Japan Inc.)were used in this study. On the day of behavioral evaluation, the animals were acclimatized to the test environment from 4 hours before the start of the experiment. Sixty minutes after oral administration of a vehicle (0.5 w/v % MC solution) or a test compound (prepared in suspension in 0.5 w/v % MC solution to obtain a dosing concentration of 0.5 mL per 100 g of rat body weight), two rats were allowed to meet each other in an acrylic box (50×50×50 cm). The total time of social interaction behaviors (sniffing, following, grooming and the like) during monitoring for 10 minutes immediately after meeting (between-rats interaction time) were measured with a stopwatch.
# Meanwhile, meta-chlorophenylpiperadine hydrochloride (mCPP) is an anxiogenic substance having a 5-HT2 receptor stimulation action. It was reported that mCPP induced anxiety symptoms in healthy subjects and aggravated the symptoms of generalized anxiety disorder in humans. The mCPP-induced anxiety response is an experimental model that well reflects anxiety (for example, generalized anxiety disorder) caused by abnormal signaling especially via 5-HT2 receptors.
# Next, the effect on mCPP-induced anxiety was examined. […]
# male ICR mice = assay: Marble burying behavior test in mice; assay type: in vivo; settings: 3 mg/kg oral, 1 hour before test; marbles counted after 30 minutes; significant
# From the text: This test is known as one of the test systems for anxiolytics (Folia Pharmacologica Japonica, 126, p. 94 (2005)). Marble-burying behavior is a behavior of the mouse to bury marbles in spread planer bedding on which the marbles were placed, and is suppressed, without being accompanied by motor inhibition, by selective serotonin reuptake inhibitors (SSRIs). Since the behavior of the mouse to attempt to cover and bury harmless marbles in planer bedding is apparently similar to compulsions in patients with obsessive-compulsive disorders that are repeated while they recognize them as being unreasonable, and also since SSRIs are effective as therapeutic drugs for obsessive-compulsive disorders, and for other reasons, the marble burying behavior is getting positioned as an animal model of obsessive-compulsive disorder
# The male ICR mice (weighing 27.6 to 42.9 g; Japan SLC, Inc.) were used in this study. […] At 30 minutes later, the number of marbles more than half-buried in the planer was counted. […]
# The effects of the drug are expressed as the actually measured number of buried marbles and the inhibition rate calculated by the following equation.
# male SD rats [3] = assay: Rat social interaction test; assay type: in vivo; settings: 0.3 mg/kg oral
# From the text: It is known that these social interactions increase with administration of existing anxiolytics. This test is thought as an animal model of social phobia or generalized anxiety disorders because it is consider that contradictory social environments between two rats cause stress (Eur. J. Pharmacol., 408, p. 41 (2000)).
# as §1
# male Wistar rats = assay: Vogel conflict test in rats; assay type: in vivo, rat; settings: 0.03 mg/kg oral, 60 minutes before; 5 min session; vehicle 6.1±0.8 times; P=0.003846, Steel-test
# Protocol: This test is to measure drinking counts (number of shocks during drinking) when an electric shock is applied to a water-deprived rat at each time that the rat drinks water. Under this condition, a rat is thought to be placed under a state of conflict between the motivation to drink (positive reinforcing factor) and the aversion to receiving an electric shock (negative reinforcing factor, punishment). When anxiolytics are administered to a rat, anxiety about punishing stimuli is suppressed and behavior in an attempt to take a positive reinforcer is observed. This test is thought to be an animal model of generalized anxiety disorders (Folia Pharmacologica Japonica, 115, p. 5 (2005), Japanese Journal of Clinical Psychopharmacology, 9, p. 2389 (2006)).
# The male Wistar rats (weighing 148.4 to 211.7 g; Japan SLC, Inc.) and an operant experimental apparatus were used in 20 this study. The chamber consisted of a soundproof box, and a test cage (25×30×25 cm), a shock generator, a controller, a licking sensor and PC analysis system placed in the soundproof box. […] Current conduction by licking (drinking) was detected with the licking senor and measured with the PC analysis system via the controller. […] Twenty nozzle licks were counted as one drinking response and drinking frequency (drinking count) was determined (pre-value). […]
# male SD rats [4] = assay: Elevated plus maze test in rat; assay type: in vivo; settings: 0.1 mg/kg oral
# From the text: In this test, a conflict arises between rodent's exploratory drive and an innate aversion to bright open new spaces (open arms), accordingly, it has been reported that drugs having anti-anxiety activity increase the time spent in the open arms and the number of open arm entries, while anxiogenic substance decreases these parameters (Japanese Journal of Clinical Psychopharmacology, 9, p. 2389 (2006)). This test is thought to be an animal model of generalized anxiety disorders (Folia Pharmacologica Japonica, 115, p. 5 (2005), Japanese Journal of Clinical Psychopharmacology, 9, p. 2389 (2006)).
# The male SD rats (weighing 133.8 to 260.2 g; Charles River Japan Inc.) were used in this study. An apparatus was used wherein two open arms (50×10 cm) extending on the same line from a 10 cm-square central area and two enclosed arms (50×10 cm) surrounded by a wall of 40 cm height are perpendicularly crossing. Sixty minutes after oral administration of a vehicle (0.5 w/v % MC solution) or a test 20 compound (a suspension in 0.5 w/v % MC solution prepared to obtain a dosing concentration of 0.5 mL per 100 g of rat body weight), each rat was placed in the center of the elevated plus maze with its head facing toward the enclosed arm and immediately observed for its behavior for 5 minutes. The rat behavior on the maze was recorded with a digital video camera positioned on the ceiling of the laboratory. The times spent and number of entries in the open arms, enclosed arms and central platform, and distance travelled were determined using analysis software. The time spent in the open arms, percentage of open arm entries (ratio of the number of entries in the open arms to the total number of entries in the open and enclosed arms) and total distance travelled on the maze during the monitoring period were determined to evaluate the influences of the test compound.
# male SD rats [5] = assay: Conditioned fear stress (CFS) test in rats; assay type: in vivo, rat; settings: 0.3 mg/kg, 60 min before retention trial
# From the text: In this test (Folia Pharmacologica Japonica, 113, p. 113 (1999)), the influences of psychological stress resulting from past aversion experience on living organisms can be measured as behavioral suppression (freezing reaction) or autonomic nervous system hyperactivity (increases in respiratory rate and blood pressure).
# The male SD rats (weighing 140.2 to 320.0 g; Charles River Japan Inc.) and a contextual learning test system were used in this study. The experimental apparatus is consisted of a soundproof box, and a test cage (20×20×25 cm), a shock generator, a controller, an external monitor and PC analysis system, which were placed in the soundproof box. The test cage has stainless bars on the floor at 1-cm intervals. A scrambled electric current was generated from the shock generator using 35 a command of the special program . The inside of the soundproof box was equipped with a speaker. A buzzer sound of 65 dB was generated via the controller using a command of the special program. The animal behavior within the test cage was recorded with a CCD camera, which was positioned on the ceiling of the soundproof box. […] The percentage of freezing behavior was determined by (Freezing time/Test time)×100. […] According to the same schedule as that on the previous day, only a buzzer sound was generated six times and the duration of freezing behavior was measured. […]
smiles,measurement,setting,value
"COC(=O)[C@@H]1[C@H]2C[C@H]3c4[nH]c5ccccc5c4CCN3C[C@@H]2CC[C@@H]1O [Yohimbine, reference compound]",between-rats interaction time (Yohimbine alone),"rats [1]; Yohimbine 5 mg/kg oral, 30 minutes before measurement, vehicle 90.6±7.1 seconds, P=0.0010, Aspin-Welch test",57.6 ± 3.4 s
"Cl.Clc1cccc(N2CCNCC2)c1 [mCPP, meta-chlorophenylpiperadine hydrochloride, reference compound]",between-rats interaction time (mCPP alone),"rats [2]; mCPP 0.5 mg/kg oral, 30 minutes before measurement, vehicle 83.4±5.1 seconds, P<0.001, Student's t-test",32.5 ± 3.6 s
Cc1ccc(C(=O)Nc2nc(-c3ccco3)c(C(=O)C3CCOCC3)s2)cn1 [compound (IC)],% inhibition of mouse marble burying behavior,male ICR mice,73.7%
same,between-rats interaction time,"male SD rats [3]; 60 min before, 10 min monitoring, vehicle 85.2 ±7.6 seconds, P=0.01545, Dunnett test",119.3 ± 9.0 s
same,spontaneous activity,"male SD rats [3]; vehicle 8635.3 ±506.4 counts, P<0.001, Dunnett test",12922.7 ±646.8 counts
same,between-rats interaction time (improvement of reduction by Yohimbine),"rats [1]; 0.03 mg/kg, 30 minutes before Yohimbine (5 mg/kg), Yohimbine alone 57.6±3.4 seconds, P=0.00019, Steel test",90.3 ± 5.0 s
same,between-rats interaction time (improvement of reduction by mCPP),"rats [2]; 0.3 mg/kg, 30 minutes before mCPP (0.5 mg/kg), mCPP alone 32.5±3.6 seconds, P<0.001, Dunnett test",62.4 ± 6.9 s
same,"number of electric shocks received (drinking count, test-punished session)",male Wistar rats,12.7±1.7 times
same,time spent in the open arms,"male SD rats [4]; 60 min before, 5 minutes, vehicle 21.6 ±7.4 seconds, P=0.01687, Steel test",61.6 ± 10.9 s
same,percentage of open arm entries,"male SD rats [4]; vehicle 15.5±3.0%, P=0.04759, Steel test",33.4±6.3%
same,total distance travelled on the maze,"male SD rats [4]; vehicle 2521.97±95.34 cm, not affected",2414.83±102.13 cm
same,percentage of freezing behavior in the post-tone period,"male SD rats [5]; vehicle 59.8±9.6, P=0.01559, Dunnett test",23.4 ± 8.1%
same,percentage of freezing behavior in the with-tone period,"male SD rats [5]; vehicle 90.2±2.6, P=0.02867, Steel test",57.1 ± 9.9%
